Data published in patent publication US12428406B2 (PMV Pharmaceuticals, Inc., priority 2019, dated 2025).

molecular target: T1, p53 Y220C (Homo sapiens, UniProt P04637, Y220C); experiment: In vitro DNA binding activity assay (HTRF / TR-FRET): stabilization of p53 Y220C and increase of its DNA binding activity; format: biochemical; settings: recombinant His-tagged p53 Y220C DNA binding domain (aa 94-312), biotin-labeled consensus DNA, incubated at 27° C. or 29° C. for 60 min
T1 construct: The recombinant protein was a truncation mutant containing only amino acids 94-312 of p53; made in house; host or cells: E. coli
T1 sequence (P04637 94-312, change not shown): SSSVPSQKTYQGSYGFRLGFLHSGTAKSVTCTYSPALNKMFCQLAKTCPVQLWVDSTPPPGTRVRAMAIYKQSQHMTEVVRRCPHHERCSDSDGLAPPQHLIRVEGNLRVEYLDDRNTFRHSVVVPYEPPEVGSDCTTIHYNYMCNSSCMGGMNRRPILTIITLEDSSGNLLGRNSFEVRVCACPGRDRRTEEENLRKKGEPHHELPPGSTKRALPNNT
Method in brief: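 Homogeneous time-resolved fluorescence with E. coli-derived p53 Y220C and biotinylated consensus DNA. Room-temperature incubations of 15 and 20 min precede reading. SC150 denotes the compound concentration required for 50% increased DNA binding.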

Row | SMILES | SC150 (concentration of the compound required to increase the DNA binding activity by 50%)
1 | COC(=O)c1ccc(NCC#Cc2cc3c(N[C@@H]4CCN(CC(N)=O)C[C@@H]4F)cccc3n2CC(F)(F)F)c(OC)c1 [Compound 901A, methyl 4-{[3-(4-{[(3S,4R)-1-(carbamoylmethyl)-3-fluoropiperidin-4-yl]amino}-1-(2,2,2-trifluoroethyl)-1H-indol-2-yl)prop-2-yn-1-yl]amino}-3-methoxybenzoate] | + (+ = 0 μM ≤ SC150 < 0.05 μM)
2 | CCC(=O)O[C@H](COC)CN1CCC(Nc2cccc3c2cc(C#CCNc2ccc(S(C)(=O)=O)cc2OC)n3CC(F)(F)F)CC1 [Compound 715A, (2S)-1-{4-[(2-{3-[(4-methanesulfonyl-2-methoxyphenyl)amino]prop-1-yn-1-yl}-1-(2,2,2-trifluoroethyl)-1H-indol-4-yl)amino]piperidin-1-yl}-3-methoxypropan-2-yl propanoate] | + (+ = 0 μM ≤ SC150 < 0.05 μM)
3 | CNC(=O)c1ccc(NCC#Cc2cc3c(N[C@H]4CC[C@H](N(C)C)CC4)cccc3n2CC(F)(F)F)c(OCCF)c1 [Compound 104A, 3-(2-fluoroethoxy)-N-methyl-4-{[3-(4-{[(1R,4R)-4-(dimethyl-amino)cyclohexyl]amino}-1-(2,2,2-trifluoro-ethyl)-1H-indol-2-yl)prop-2-yn-1-yl]amino}benzamide] | + (+ = 0 μM ≤ SC150 < 0.05 μM)
4 | COc1cc(S(C)(=O)=O)ccc1NCC#Cc1cc2c(N[C@@H]3CCC4(C[C@@H]3F)OCCO4)cccc2n1CC(F)(F)F [Compound 870A, N-[(7S,8R)-7-fluoro-1,4-dioxaspiro[4.5]decan-8-yl]-2-{3-[(4-methanesulfonyl-2-methoxyphenyl)amino]prop-1-yn-1-yl}-1-(2,2,2-trifluoroethyl)-1H-indol-4-amine] | + (+ = 0 μM ≤ SC150 < 0.05 μM)
5 | CN1CCC(Nc2cccc3c2cc(C#CCNc2ccc(S(C)(=O)=O)cc2OC(F)(F)F)n3CC(F)(F)F)CC1 [Compound 466A] | + (+ = 0 μM ≤ SC150 < 0.05 μM)
6 | CN(C)[C@H]1CC[C@H](Nc2cccc3c2cc(C#CCNc2ccc(S(C)(=O)=O)cc2OCF)n3CC(F)(F)F)CC1 [Compound 117A, (1R,4R)—N^1-(2-(3-((2-(fluoromethoxy)-4-(methylsulfonyl)phenyl)amino)prop-1-yn-1-yl)-1-(2,2,2-trifluoroethyl)-1H-indol-4-yl)-N^4,N^4-dimethylcyclohexane-1,4-diamine] | + (+ = 0 μM ≤ SC150 < 0.05 μM)
7 | COc1cc(S(C)(=O)=O)ccc1NCC#Cc1cc2c(N[C@H]3CCC[C@@H](O)C3)cccc2n1CC(F)(F)F (relative stereo) [Compound 30A, rel-(1R,3S)-3-[(2-{3-[(4-methanesulfonyl-2-methoxyphenyl)amino]prop-1-yn-1-yl}-1-(2,2,2-trifluoroethyl)-1H-indol-4-yl)amino] cyclohexan-1-ol] | + (+ = 0 μM ≤ SC150 < 0.05 μM)
8 | CN1CC[C@H](Nc2cccc3c2cc(C#CCNc2ccc(S(C)(=O)=O)cc2OCF)n3CC(F)(F)F)[C@H](F)C1 [Compound 841A] | + (+ = 0 μM ≤ SC150 < 0.05 μM)
9 | COc1cc(C(N)=O)ccc1NCC#Cc1cc2c(N[C@H]3CC[C@H](N4CC5(CCCOC5)C4)CC3)cccc2n1CC(F)(F)F [Compound 333A, 3-methoxy-4-{[3-(4-{[(1R,4R)-4-{6-oxa-2-azaspiro[3.5]nonan-2-yl}cyclohexyl]amino}-1-(2,2,2-trifluoroethyl)-1H-indol-2-yl)prop-2-yn-1-yl]amino}benzamide] | + (+ = 0 μM ≤ SC150 < 0.05 μM)
10 | COc1cc(S(=O)(=O)N2CCN(C(C)=O)CC2)ccc1NCC#Cc1cc2c(NC3CCN(CC(O)CO)CC3)cccc2n1CC(F)(F)F (centres unmarked) [Compound 577A, 1-[4-(4-{[3-(4-{[1-(2,3-dihydroxypropyl)piperidin-4-yl]amino}-1-(2,2,2-trifluoroethyl)-1H-indol-2-yl)prop-2-yn-1-yl]amino}-3-methoxybenzenesulfonyl)piperazin-1-yl]ethan-1-one] | + (+ = 0 μM ≤ SC150 < 0.05 μM)
11 | COCC(O)CN1CCC(Nc2cccc3c2cc(C#CCNc2ccc(Cl)cc2OC)n3CC(F)(F)F)CC1 (centres unmarked) [Compound 716A, 1-{4-[(2-{3-[(4-chloro-2-methoxyphenyl)amino]prop-1-yn-1-yl}-1-(2,2,2-trifluoroethyl)-1H-indol-4-yl)amino]piperidin-1-yl}-3-methoxypropan-2-ol] | ++ (++ = 0.05 μM ≤ SC150 < 0.1 μM)
12 | COc1cc(S(C)(=O)=O)ccc1NCC#Cc1cc2c(N[C@H]3CCN(C)C[C@@H]3F)cccc2n1CC(F)(F)F (stereo in doubt) [Compound 774A, N-((3S,4S)-3-fluoro-1-methylpiperidin-4-yl)-2-(3-((2-methoxy-4-(methylsulfonyl)phenyl)amino)prop-1-yn-1-yl)-1-(2,2,2-trifluoroethyl)-1H-indol-4-amine] | + (+ = 0 μM ≤ SC150 < 0.05 μM)
13 | CN1CC[C@@H](Nc2cccc3c2cc(C#CCNC(=O)c2ccn(C(C)(C)C)c2)n3CC(F)(F)F)[C@@H](F)C1 [Compound 955A, 1-tert-butyl-N-[3-(4-{[(3S,4R)-3-fluoro-1-methylpiperidin-4-yl]amino}-1-(2,2,2-trifluoroethyl)-1H-indol-2-yl)prop-2-yn-1-yl]-1H-pyrrole-3-carboxamide] | + (+ = 0 μM ≤ SC150 < 0.05 μM)
14 | COC[C@H](CN1CCC(Nc2cccc3c2cc(C#CCNc2ccc(S(C)(=O)=O)cc2OC)n3CC(F)(F)F)CC1)OC(=O)C(C)C [Compound 638A, (2S)-1-{4-[(2-{3-[(4-methanesulfonyl-2-methoxyphenyl)amino]prop-1-yn-1-yl}-1-(2,2,2-trifluoroethyl)-1H-indol-4-yl)amino]piperidin-1-yl}-3-methoxypropan-2-yl 2-methylpropanoate] | + (+ = 0 μM ≤ SC150 < 0.05 μM)
15 | CN1CC[C@@H](Nc2cccc3c2cc(C#CCNC(=O)c2cnn(C(C)(C)C)c2)n3CC(F)(F)F)[C@@H](F)C1 [Compound 1066A, 1-tert-butyl-N-[3-(4-{[(3S,4R)-3-fluoro-1-methylpiperidin-4-yl]amino}-1-(2,2,2-trifluoroethyl)-1H-indol-2-yl)prop-2-yn-1-yl]-1H-pyrazole-4-carboxamide] | + (+ = 0 μM ≤ SC150 < 0.05 μM)
16 | CN(C)CCOc1cc(S(C)(=O)=O)ccc1NCC#Cc1cc2c(NC3CCS(=O)(=O)CC3)cccc2n1CC(F)(F)F [Compound 1037A, 4-({2-[3-({2-[2-(dimethylamino)ethoxy]-4-methanesulfonylphenyl}amino)prop-1-yn-1-yl]-1-(2,2,2-trifluoroethyl)-1H-indol-4-yl}amino)-1λ^6-thiane-1,1-dione] | ++ (++ = 0.05 μM ≤ SC150 < 0.1 μM)
17 | CS(=O)(=O)c1ccc(NCC#Cc2cc3c(N[C@H]4CC[C@H](N5CC6(COC6)C5)CC4)cccc3n2CC(F)(F)F)c(C(F)(F)F)c1 [Compound 287A, 2-(3-{[4-methane-sulfonyl-2-(trifluoro-methyl)phenyl]amino}prop-1-yn-1-yl)-N-[(1R,4R)-4-{2-oxa-6-azaspiro[3,3]heptan-6-yl}cyclohexyl]-1-(2,2,2-trifluoroethyl)-1H-indol-4-amine] | + (+ = 0 μM ≤ SC150 < 0.05 μM)
18 | COc1cc(S(N)(=O)=O)ccc1NCC#Cc1cc2c(NC3CC4(CNC4)C3)cccc2n1CC(F)(F)F [Compound 21A, 4-({3-[4-({2-azaspiro[3.3]heptan-6-yl}amino)-1-(2,2,2-trifluoroethyl)-1H-indol-2-yl]prop-2-yn-1-yl}amino)-3-methoxybenzene-1-sulfonamide] | + (+ = 0 μM ≤ SC150 < 0.05 μM)
19 | COC(=O)c1ccc(NCC#Cc2cc3c(N[C@H]4CCN(CCO)C[C@H]4F)cccc3n2CC(F)(F)F)c(OC)c1 [Compound 903A, methyl 4-{[3-(4-{[(3R,4S)-3-fluoro-1-(2-hydroxyethyl)piperidin-4-yl]amino}-1-(2,2,2-trifluoroethyl)-1H-indol-2-yl)prop-2-yn-1-yl]amino}-3-methoxybenzoate] | + (+ = 0 μM ≤ SC150 < 0.05 μM)
20 | CNC(=O)c1ccc(NCC#Cc2cc3c(NC4CCN(CCOC)CC4)cccc3n2CC(F)(F)F)c(OC)c1 [Compound 616A, 3-methoxy-4-{[3-(4-{[1-(2-methoxyethyl)piperidin-4-yl]amino}-1-(2,2,2-trifluoroethyl)-1H-indol-2-yl)prop-2-yn-1-yl]amino}-N-methylbenzamide] | + (+ = 0 μM ≤ SC150 < 0.05 μM)
21 | CNC(=O)c1ccc(NCC#Cc2cc3c(N[C@@H]4CCNC[C@@H]4F)cccc3n2CC(F)(F)F)c(OC)c1 [Compound 857A] | + (+ = 0 μM ≤ SC150 < 0.05 μM)
22 | CCC(=O)N1CCC(Nc2cccc3c2cc(C#CCNc2ccc(S(N)(=O)=O)cc2OC)n3CC(F)(F)F)CC1 [Compound 757A] | + (+ = 0 μM ≤ SC150 < 0.05 μM)
23 | COc1cc(C(=O)O)ccc1NCC#Cc1cc2c(N[C@H]3CCN(C)C[C@@H]3F)cccc2n1CC(F)(F)F [Compound 789A, 4-{[3-(4-{[(3S,4S)-3-fluoro-1-methylpiperidin-4-yl]amino}-1-(2,2,2-trifluoroethyl)-1H-indol-2-yl)prop-2-yn-1-yl]amino}-3-methoxybenzoic acid] | ++ (++ = 0.05 μM ≤ SC150 < 0.1 μM)
